How the values were obtained:
[1] = system: human colon adenocarcinoma, MDR positive (HCT-15) cells; assay: 48-hour cellular proliferation assay (sulforhodamine staining, 96-well microtitre format); type: cell-based; settings: 48 hours in culture, 0% = DMSO control, 100% = trichloroacetic acid-treated well; for inhibition at 100 µM: Homo sapiens, HCT-15, 10^-4M compound
Experimental: (§1) Compounds of this invention were tested in a 48-hour cellular proliferation assay which uses human colon adenocarcinoma, MDR positive (HCT-15) cells, and human lung large cell carcinoma, MDR negative (NCI-H460) cells, in the 96-well microtitre format described in Skehan P., et al. New Colorimetric Cytotoxicity Assay for Anticancer Drug Screening. 1990, J. Natl. Cancer Inst. 82:1107-1112. Briefly, the wells of a microtitre plate were charged sequentially with cultured cells and compounds of the invention (1.0 x 10^-4 to 1.0 x 10^-11 M in 10% DMSO prepared by dissolving compounds of the invention in DMSO and adding 11 µL of the DMSO solution to 100 µL of culture medium for a final DMSO concentration of 10%). Two of the following controls were also present in each microtitre plate: a solvent (DMSO) control without drug that yielded a 0% inhibition level and a trichloroacetic acid-treated well that yielded a 100% inhibition level. The cells were grown in culture (37 °C, 5% CO2 atmosphere) for 48 hours then fixed by the addition of trichloroacetic acid. The wells were stained with sulforhodamine, washed with 1% acetic acid, and treated with 0.01 M tris buffer (100 µL) to solubilize the adherent dye. The absorbance of the dye solution was measured with a Molecular Devices SpechaMax340 plate reader. The percent inhibition values were obtained by calculating the proportional response of the experimental values to the absorbance values of the controls.

[2] = system: human lung large cell carcinoma, MDR negative (NCI-H460) cells; assay: as above; type: cell-based; settings: 10^-4M compound, 48 hours in culture, 0% = DMSO control, 100% = trichloroacetic acid-treated well; for inhibition at 100 µM: Homo sapiens, read-out: NCI-460 % inhibition at 10^-4M
Experimental: as §1

Compound	inhibition at 100 µM [1] [%]	inhibition at 100 µM [2] [%]	HCT-15 % inhibition at 10^-4M ([1]; 10^-4M compound) [%]	NCI-460 % inhibition at 10^-4M [2] [%]
COc1cc(NS(=O)(=O)c2ccc3[nH]ccc3c2)cc(OC)c1OC [Example 9, N-(3,4,5-trimethoxyphenyl)-1H-indole-5-sulfonamide]	94.1	89.1		
COc1cc(N(C)S(=O)(=O)c2ccc3c(ccn3C)c2)cc(OC)c1OC [Example 11, N,1-dimethyl-N-(3,4,5-trimethoxyphenyl)-1H-indole-5-sulfonamide]	100	99.9		
COc1cc(NS(=O)(=O)c2c[nH]c3ccc([N+](=O)[O-])cc23)cc(OC)c1OC [Example 4, 5-nitro-N-(3,4,5-trimethoxyphenyl)-1H-indole-3-sulfonamide]	15.9	41.7		
COc1cc(S(=O)(=O)Oc2ccc3c(ccn3C)c2)cc(OC)c1OC [Example 16, 1-methyl-1H-indol-5-yl 3,4,5-trimethoxybenzenesulfonate]	100	100		
COc1cc(NS(=O)(=O)c2ccc3c(c2)CCN3C=O)cc(OC)c1OC [Example 2, 1-formyl-N-(3,4,5-trimethoxyphenyl)indoline-5-sulfonamide]	79.9	74		
COc1cc(NS(=O)(=O)c2ccc3c(c2)CCN3)cc(OC)c1OC [Example 3, N-(3,4,5-trimethoxyphenyl)indoline-5-sulfonamide]	86.2	59.3		
COc1cc(NS(=O)(=O)c2cn(C)c3ccc(N)cc23)cc(OC)c1OC [Example 7, 5-amino-1-methyl-N-(3,4,5-trimethoxyphenyl)-1H-indole-3-sulfonamide]	91.9	87		
COc1cc(NS(=O)(=O)c2ccc3c(c2)CCN3C)cc(OC)c1OC [Example 5, 1-methyl-N-(3,4,5-trimethoxyphenyl)indoline-5-sulfonamide]	97.6	96.1		
COc1cc(NS(=O)(=O)c2ccc3c(ccn3C)c2)cc(OC)c1OC [Example 10, 1-methyl-N-(3,4,5-trimethoxyphenyl)-1H-indole-5-sulfonamide]	100	100		
COc1ccc(S(=O)(=O)Nc2cc(OC)c(OC)c(OC)c2)cc1 [Example 1, 4-methoxy-N-(3,4,5-trimethoxyphenyl)benzenesulfonamide]	99.4	98.5		
COc1cc(NS(=O)(=O)c2cn(C)c3ccc([N+](=O)[O-])cc23)cc(OC)c1OC [Example 6, 1-methyl-5-nitro-N-(3,4,5-trimethoxyphenyl)-1H-indole-3-sulfonamide]	50.6	45.5		
COc1cc(NS(=O)(=O)c2c[nH]c3ccc(N)cc23)cc(OC)c1OC [Example 8, 5-amino-N-(3,4,5-trimethoxyphenyl)-1H-indole-3-sulfonamide]	37	< 9.1		
COc1cc(S(=O)(=O)Oc2ccc3[nH]ccc3c2)cc(OC)c1OC [Example 15, 1H-indol-5-ol,(3,4,5-trimethoxybenzenesulfonate) ester]			100.0	100.0

From patent publication EP1181269B1, “CELL PROLIFERATION INHIBITORS” (ABBOTT LABORATORIES, priority 1999, dated 2000)
